The IC50 is the midpoint of a concentration-inhibition curve.

The results in this text go back to patent US7514452B2, “2-furancarboxylic acid hydrazides and pharmaceutical compositions containing the same” (Dainippon Pharmaceutical Co., Ltd, priority 2002, dated 2009).

Assay [1] deals with glucagon receptor (Rattus norvegicus, UniProt P30082). Put plainly: Experiment for glucagon binding inhibition, rat hepatic membrane (125I-glucagon). The settings on record: male SD rat hepatic membrane, 125I-glucagon 50 pM, 25° C. for 30 minutes; read-out: Glucagon binding inhibitory activity IC50 (nM) Rat. As to the method: (§1) The preparation of membrane from mouse and rat livers was carried out according to the method described in Bioorg. Med. Chem. Lett. 1992, 12, 915-918 in this experiment and ^125I-glucagon binding activity was measured with these membranes as glucagon receptor's samples. Livers were removed from male SD rats (about 250 g body weight per rat) and male ddY mice (about 30 g body weight per mouse). […] The homogenate was centrifuged for 15 minutes at 30,000×g. […] The precipitaion thus obtained was used as a hepatic membrane sample. […] The mixture was incubated at 25° C. for 30 minutes. […] The filter was washed 3 times with 50 mM Tris-HCl buffer (pH 7.2), and the radioactivity of the filter was measured by a γ counter (ARC-360, Aloka Co., Ltd.). […] Each experiment was carried out in duplicate. […] The concentration at 50% inhibition of binding (IC50) was calculated using a pseudo Hill plot.
glucagon receptor (Rattus norvegicus, UniProt P30082), sequence (P30082 27-485): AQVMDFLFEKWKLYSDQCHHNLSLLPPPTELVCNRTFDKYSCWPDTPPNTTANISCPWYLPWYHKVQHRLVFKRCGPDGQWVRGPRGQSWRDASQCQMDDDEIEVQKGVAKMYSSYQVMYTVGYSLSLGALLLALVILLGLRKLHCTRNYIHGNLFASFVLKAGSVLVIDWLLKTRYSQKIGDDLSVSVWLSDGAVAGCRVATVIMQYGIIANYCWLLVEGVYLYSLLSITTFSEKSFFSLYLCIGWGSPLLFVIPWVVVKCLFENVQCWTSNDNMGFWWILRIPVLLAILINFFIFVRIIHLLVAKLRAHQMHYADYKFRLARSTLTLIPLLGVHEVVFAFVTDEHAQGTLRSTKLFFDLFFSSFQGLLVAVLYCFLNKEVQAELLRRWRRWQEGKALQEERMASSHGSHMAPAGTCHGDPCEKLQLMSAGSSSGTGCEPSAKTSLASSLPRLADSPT

Assay [2] deals with glucagon receptor (Mus musculus, UniProt Q61606). Nature of the assay: Experiment for glucagon binding inhibition, mouse hepatic membrane (125I-glucagon). The settings on record: male ddY mouse hepatic membrane, 125I-glucagon 50 pM, 25° C. for 30 minutes; read-out: Glucagon binding inhibitory activity IC50 (nM) Mouse. As to the method:
as §1

glucagon receptor (Mus musculus, UniProt Q61606), sequence (Q61606 27-485): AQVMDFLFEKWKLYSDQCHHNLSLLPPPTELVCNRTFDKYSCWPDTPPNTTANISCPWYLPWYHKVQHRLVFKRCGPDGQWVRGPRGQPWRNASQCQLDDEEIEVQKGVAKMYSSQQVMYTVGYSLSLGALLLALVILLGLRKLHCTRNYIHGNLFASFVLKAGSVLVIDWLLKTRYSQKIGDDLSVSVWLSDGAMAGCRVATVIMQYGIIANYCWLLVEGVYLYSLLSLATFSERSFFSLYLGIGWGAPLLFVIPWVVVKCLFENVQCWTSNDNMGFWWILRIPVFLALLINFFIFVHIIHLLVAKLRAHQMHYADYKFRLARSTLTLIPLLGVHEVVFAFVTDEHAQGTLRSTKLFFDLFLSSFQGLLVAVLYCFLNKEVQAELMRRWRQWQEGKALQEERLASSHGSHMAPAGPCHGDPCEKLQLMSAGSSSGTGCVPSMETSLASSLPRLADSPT

For the compound `O=C(NNC(=O)c1occ(-c2ccccc2)c1-c1ccccc1)c1ccc(O)c(C(F)(F)F)c1` [Example 43, 3,4-diphenyl-2-furancarboxylic acid 2-(4-hydroxy-3-trifluoromethylbenzoyl)hydrazide], the IC50 at glucagon receptor [1] was 160 nM; at glucagon receptor [2] it was 390 nM.

`N#Cc1cc(C(=O)NNC(=O)c2occ(COCc3ccccc3)c2-c2ccccc2)ccc1O` [Example 56, 4-Benzyloxymethyl-3-phenyl-2-furancarboxylic acid 2-(3-cyano-4-hydroxybenzoyl)hydrazide]: the IC50 was determined as 150 nM on glucagon receptor [1] and 220 nM on glucagon receptor [2].

`N#Cc1cc(C(=O)NNC(=O)c2occc2-c2cccc(OCC(O)c3ccccc3)c2)ccc1O` (stereo not shown) [Example 108, 3-[3-(2-Hydroxy-2-phenylethoxy)phenyl]-2-furancarboxylic acid 2-(3-cyano-4-hydroxybenzoyl)hydrazide]: the IC50 amounted to 110 nM on glucagon receptor [1] and 310 nM on glucagon receptor [2].

`CCCOc1ccccc1-c1ccoc1C(=O)NNC(=O)c1ccc(O)c(C#N)c1` [Example 11, 3-(2-propoxyphenyl)-2-furancarboxylic acid 2-(3-cyano-4-hydroxybenzoyl)hydrazide]: the IC50 on glucagon receptor [1] is 140 nM; on glucagon receptor [2], 450 nM.

For `N#Cc1cc(C(=O)NNC(=O)c2occc2-c2ccccc2)ccc1O` [Example 61, 3-phenyl-2-furancarboxylic acid 2-(3-cyano-4-hydroxybenzoyl)hydrazide], the values for the IC50 on glucagon receptor [1] and at glucagon receptor [2] were 58 nM and 200 nM, respectively.

For the compound `N#Cc1cc(C(=O)NNC(=O)c2occc2-c2ccccc2Cc2ccccc2)ccc1O` [Example 8, 3-(2-benzylphenyl)-2-furancarboxylic acid 2-(3-cyano-4-hydroxybenzoyl)hydrazide], the IC50 at glucagon receptor [1] came to 170 nM; on glucagon receptor [2], 310 nM.

Take `CC(C)Oc1ccccc1-c1ccoc1C(=O)NNC(=O)c1ccc(O)c(C#N)c1` [Example 10, 3-(2-isopropoxyphenyl)-2-furancarboxylic acid 2-(3-cyano-4-hydroxybenzoyl)hydrazide]: the figures for the IC50 at glucagon receptor [1] and on glucagon receptor [2] were 180 nM and 230 nM, respectively.

With `N#Cc1cc(C(=O)NNC(=O)c2occc2-c2ccccc2Oc2ccccc2)ccc1O` [Example 13, 3-(2-phenoxyphenyl)-2-furancarboxylic acid 2-(3-cyano-4-hydroxybenzoyl)hydrazide], the IC50 at glucagon receptor [1] is 190 nM; on glucagon receptor [2], 180 nM.

On to `O=C(NNC(=O)c1occc1-c1cccc(OCc2ccccc2)c1)c1ccc(O)c([N+](=O)[O-])c1` [Example 101, 3-(3-benzyloxyphenyl)-2-furancarboxylic acid 2-(4-hydroxy-3-nitrobenzoyl)hydrazide], for which the IC50 on glucagon receptor [1] came out at 33 nM; on glucagon receptor [2] it was 28 nM.

For `N#Cc1cc(C(=O)NNC(=O)c2occ(C=CCCc3ccccc3)c2-c2ccccc2)ccc1O` [Example 59, 3-Phenyl-4-(4-phenyl-1-butenyl)-2-furancarboxylic acid 2-(3-cyano-4-hydroxybenzoyl)hydrazide], the IC50 amounted to 35 nM on glucagon receptor [1] and 84 nM at glucagon receptor [2].

On to `CC(=O)Nc1ccccc1COc1cccc(-c2ccoc2C(=O)NNC(=O)c2ccc(O)c([N+](=O)[O-])c2)c1` [Example 179, 3-[3-(2-Acetylaminobenzyloxy)phenyl]-2-furancarboxylic acid 2-(4-hydroxy-3-nitrobenzoyl)hydrazide], for which the IC50 at glucagon receptor [1] came to 63 nM; at glucagon receptor [2], 28 nM.

In the case of `Cc1cc(C)c(C)c(COc2cccc(-c3c(-c4ccccc4)coc3C(=O)NNC(=O)c3ccc(O)c(C#N)c3)c2)c1C` [Example 98, 4-phenyl-3-[3-(2,3,5,6-tetramethylbenzyloxy)phenyl]-2-furancarboxylic acid 2-(3-cyano-4-hydroxybenzoyl)hydrazide], the IC50 on glucagon receptor [1] came out at 1.5 nM; at glucagon receptor [2] it was 4 nM.

For the compound `N#Cc1cc(C(=O)NNC(=O)c2occc2-c2cccc(OCc3ccncc3)c2)ccc1O` [Example 102, 3-[3-(4-pyridylmethyloxy)phenyl]-2-furancarboxylic acid 2-(3-cyano-4-hydroxybenzoyl)hydrazide], the IC50 was found to be 95 nM at glucagon receptor [1] and 93 nM at glucagon receptor [2].

In the case of `N#Cc1cc(C(=O)NNC(=O)c2occc2-c2ccccc2OCc2ccccc2)ccc1O` [Example 5, 3-(2-benzyloxyphenyl)-2-furancarboxylic acid 2-(3-cyano-4-hydroxybenzoyl)hydrazide], the IC50 at glucagon receptor [1] is 200 nM; on glucagon receptor [2], 130 nM.

With `N#Cc1cc(C(=O)NNC(=O)c2occ(COC(=O)NCCc3ccccc3)c2-c2ccccc2)ccc1O` [Example 54, 4-(Phenethylaminocarbonyloxymethyl)-3-phenyl-2-furancarboxylic acid 2-(3-cyano-4-hydroxybenzoyl)hydrazide], the figures for the IC50 at glucagon receptor [1] and on glucagon receptor [2] were 150 nM and 380 nM, respectively.

As for `Cc1cc(C)c(C)c(COc2cccc(-c3ccoc3C(=O)NNC(=O)c3ccc(O)c([N+](=O)[O-])c3)c2)c1C` [Example 20, 3-[3-(2,3,5,6-tetramethylbenzyloxy)phenyl]-2-furancarboxylic acid 2-(4-hydroxy-3-nitrobenzoyl)hydrazide], the IC50 on glucagon receptor [1] is 9.2 nM; at glucagon receptor [2], 24 nM.

In the case of `Cc1cc(C)c(C)c(COc2cccc(-c3c(-c4ccccc4)coc3C(=O)NNC(=O)c3ccc(O)c([N+](=O)[O-])c3)c2)c1C` [Example 100, 4-phenyl-3-[3-(2,3,5,6-tetramethylbenzyloxy)phenyl]-2-furancarboxylic acid 2-(4-hydroxy-3-nitrobenzoyl)hydrazide], the IC50 was determined as 5.8 nM on glucagon receptor [1] and 9.1 nM on glucagon receptor [2].

Consider `N#Cc1cc(C(=O)NNC(=O)c2occ(-c3ccccc3)c2-c2ccccc2)ccc1O` [Example 18, 3,4-diphenyl-2-furancarboxylic acid 2-(3-cyano-4-hydroxybenzoyl)hydrazide], for which the IC50 at glucagon receptor [1] stood at 41 nM; on glucagon receptor [2], 120 nM.

In the case of `N#Cc1cc(C(=O)NNC(=O)c2occc2-c2cccc(OCCc3ccccc3)c2)ccc1O` [Example 4, 3-(3-phenethyloxyphenyl)-2-furancarboxylic acid 2-(3-cyano-4-hydroxybenzoyl)hydrazide], the results for the IC50 on glucagon receptor [1] and on glucagon receptor [2] were 28 nM and 130 nM, respectively.

For the compound `Cc1cc(C)c(C)c(COc2ccccc2-c2ccoc2C(=O)NNC(=O)c2ccc(O)c(C#N)c2)c1C` [Example 9, 3-[2-(2,3,5,6-tetramethylbenzyloxy)phenyl]-2-furancarboxylic acid 2-(3-cyano-4-hydroxybenzoyl)hydrazide], the IC50 is 210 nM at glucagon receptor [1] and 75 nM at glucagon receptor [2].

For `Cc1cc(C)c(C)c(COc2cccc(-c3ccoc3C(=O)NNC(=O)c3ccc(O)c(C#N)c3)c2)c1C` [Example 1, 3-[3-(2,3,5,6-tetramethylbenzyloxy)phenyl]-2-furancarboxylic acid 2-(3-cyano-4-hydroxybenzoyl)hydrazide], the IC50 at glucagon receptor [1] amounted to 21 nM; at glucagon receptor [2], 99 nM.

For `N#Cc1cc(C(=O)NNC(=O)c2occc2-c2ccc(Oc3ccccc3)cc2)ccc1O` [Example 16, 3-(4-phenoxyphenyl)-2-furancarboxylic acid 2-(3-cyano-4-hydroxybenzoyl)hydrazide], the IC50 at glucagon receptor [1] is 87 nM; on glucagon receptor [2], 180 nM.

Regarding `N#Cc1cc(C(=O)NNC(=O)c2occc2-c2ccccc2OCCc2ccccc2)ccc1O` [Example 12, 3-(2-phenethyloxyphenyl)-2-furancarboxylic acid 2-(3-cyano-4-hydroxybenzoyl)hydrazide], the figures for the IC50 at glucagon receptor [1] and on glucagon receptor [2] were 85 nM and 170 nM, respectively.

Consider `Cc1cc(C)c(C)c(COc2ccc(-c3ccoc3C(=O)NNC(=O)c3ccc(O)c(C#N)c3)cc2)c1C` [Example 15, 3-[4-(2,3,5,6-tetramethylbenzyloxy)phenyl]-2-furancarboxylic acid 2-(3-cyano-4-hydroxybenzoyl)hydrazide], for which the IC50 on glucagon receptor [1] turned out to be 27 nM; on glucagon receptor [2], 170 nM.

For `N#Cc1cc(C(=O)NNC(=O)c2occc2-c2ccc(OCc3ccccc3)cc2)ccc1O` [Example 17, 3-(4-benzyloxyphenyl)-2-furancarboxylic acid 2-(3-cyano-4-hydroxybenzoyl)hydrazide], the concentration for half-maximal inhibition (IC50) at glucagon receptor [1] stood at 99 nM; on glucagon receptor [2], 160 nM.

For the compound `N#Cc1cc(C(=O)NNC(=O)c2occc2-c2cccc(Oc3ccccc3)c2)ccc1O` [Example 2, 3-(3-phenoxyphenyl)-2-furancarboxylic acid 2-(3-cyano-4-hydroxybenzoyl)hydrazide], the results for the IC50 on glucagon receptor [1] and on glucagon receptor [2] were 330 nM and 140 nM, respectively.

For `N#Cc1cc(C(=O)NNC(=O)c2occ(-c3cccc(OCc4ccccc4)c3)c2-c2cccc(OCc3ccccc3)c2)ccc1O` [Example 115, 3,4-bis(3-benzyloxyphenyl)-2-furancarboxylic acid 2-(3-cyano-4-hydroxybenzoyl)hydrazide], the IC50 on glucagon receptor [1] turned out to be 54 nM; on glucagon receptor [2] it was 80 nM.

On to `O=C(NNC(=O)c1occ(-c2ccccc2)c1-c1ccccc1)c1ccc(O)c([N+](=O)[O-])c1` [Example 19, 3,4-diphenyl-2-furancarboxylic acid 2-(4-hydroxy-3-nitrobenzoyl)hydrazide], for which the IC50 amounted to 86 nM at glucagon receptor [1] and 97 nM on glucagon receptor [2].

Regarding `CS(=O)(=O)Nc1ccccc1COc1cccc(-c2ccoc2C(=O)NNC(=O)c2ccc(O)c([N+](=O)[O-])c2)c1` [Example 138, 3-[3-(2-Methylsulfonylaminobenzyloxy)phenyl]-2-furancarboxylic acid 2-(4-hydroxy-3-nitrobenzoyl)hydrazide], the IC50 came to 15 nM at glucagon receptor [1] and 23 nM on glucagon receptor [2].
